These results are taken from article PMC3948331 (Future medicinal chemistry, 2013).

In series [1] the test system is S. typhimurium strains. To be noted: cited from earlier work.
The test system of series [2] is guinea pigs. To be noted: guinea pigs treated with Bnz; cited from earlier work.
For series [3], the system named is T. cruzi, strain Tulahuen C4 amastigotes. As to the kind of experiment: In vitro activity against T. cruzi intracellular amastigotes in L6 host cells. To be noted: for pIC50: Trypanosoma cruzi, TULAHUEN, L6, read-out: T. cruzi IC-50; for Selectivity: IC50 in L6 cells/IC50 in T. cruzi, compounds 9–13. Format: cell-based, Trypanosoma cruzi.
The subject of series [4] is Balb/c mice. In words: Apparent toxicity in treated T. cruzi-infected mice. Format: in vivo. To be noted: 30 mg/kg/day i.p., 5- and 10-day treatment.
Series [5] concerns transgenic T. cruzi Y strain expressing firefly luciferase. As to the kind of experiment: In vivo anti-T. cruzi fast luminescence assay in infected Balb/c mice. Details: species or system Trypanosoma cruzi. To be noted: for in vivo antichagasic activity compared with Bnz: 10-day treatment, Bnz 15 mg/kg/day.
The nature of series [6]: Cytotoxicity assessment in the host L6 cells. Format: cell-based. To be noted: rat, L6 cells (rat skeletal myoblasts).
Series [7] can be described thus: Plasma stability screen. To be noted: 5 µM. Format: in vitro ADME, mouse.
Series [8] in a line: Microsomal stability screen. To be noted: mouse, microsomes, 1 h, 1 µM, pH 7.4. Format: in vitro ADME.
Series [9] can be described thus: Caco-2 monolayer permeability. To be noted: human. (In general: Caco-2 monolayers are a common model of the intestinal barrier.)
Series [10] can be described thus: in vitro. To be noted: human, Caco-2.
For series [11] the following is noted: logD at pH 6; threshold for high permeability; cited from earlier work.
The subject of series [12] is zebrafish embryos. As to the kind of experiment: Toxicity studies in zebrafish embryos. To be noted: incubation of embryos; data not shown.
[13] abbreviates: i.p., 5–10 days treatment at the doses of Figure 1, more than 80 and up to 100%.

In general, Papp A→B refers to the apparent permeability from the apical to the basolateral side of a cell layer. Low values mean poor permeation, high ones ready permeation.

The structures appear in SMILES notation. pIC50: −log10 of the molar value. Some results are limits rather than exact numbers.

For `O=C(Cn1ccnc1[N+](=O)[O-])NCc1ccccc1` [Bnz, benznidazole], the “concentrations showing significant mutagenicity” value in series [1] was less than 62 µg/mL. Moreover, the “mutagenic derivatives in serum and urine detectable by the Ames test” value in series [2] is “not metabolized by the mammalian host into stable mutagenic derivatives”. In series [3], the pIC50 was 5.84.
With `Cl.O=[N+]([O-])c1ncn(CCCNCCc2cccc(C(F)(F)F)c2)n1` [Compound 9, [3-(3-nitro-1H-1,2,4-triazol-1-yl)propyl] ({2-[3-(trifluoromethyl)phenyl]ethyl})amine hydrochloride], in series [3], the Selectivity was found to be 116. Further, the pIC50 in series [3] is 6.11; in series [6], 4.05. Moreover, the “toxicity in treated mice” value in series [4] is recorded as “without any sign of toxicity”. Further, the “drop of parasite index” value in series [5] (30 mg/kg/day i.p., after 5-day treatment) is recorded as “about 88%”; in series [5] (30 mg/kg/day i.p., after 10-day treatment) it was approximately 85%; in series [5] (setting [13]) it was “more than 80%”.
For `O=[N+]([O-])c1ncn(CCCNc2nc3ccc(Cl)cc3s2)n1` [Compound 10, 6-chloro-N-[3-(3-nitro-1H-1,2,4-triazol-1-yl)propyl]-1,3-benzothiazol-2-amine], in [7] (mouse plasma, 60 min, 37°C), the “Mean remaining parent comp” value was found to be 87.3%. Further, in series [3], the Selectivity is given as 1725 and the pIC50 was 7.23. In [5] (10 mg/kg/day i.p., 5- or 10-day treatment), the “in vivo antichagasic activity” value is “failed to demonstrate in vivo antichagasic activity”. In series [6], this compound showed a pIC50 of 3.99. In addition, in [8], the “Mean remaining parent comp (+)NADPH” value is recorded as 1.0% and the “Mean remaining parent comp (−)NADPH” value was 108%.
Turning to `O=[N+]([O-])c1ncn(CCCCNS(=O)(=O)c2ccc(Cl)s2)n1` [Compound 11, 5-chloro-N-[4-(3-nitro-1H-1,2,4-triazol-1-yl)butyl]thiophene-2-sulfonamide], in series [3], the Selectivity is 277.5 and the pIC50 is 6.34. The parasite signal result in series [5] (15 mg/kg/day i.p., after 10 days of treatment, greater activity than Bnz) is listed as “no detectable parasite signal”. Further, the “drop of parasite index” value in series [5] (setting [13]) was “more than 80%”. This compound gave a pIC50 in [6] of 3.89.
`O=[N+]([O-])c1ncn(CCCCNS(=O)(=O)c2cc(Cl)c(Cl)s2)n1` [Compound 12, 4,5-dichloro-N-[4-(3-nitro-1H-1,2,4-triazol-1-yl)butyl]thiophene-2-sulfonamide]: in [3], the Selectivity worked out at 261.1 and the pIC50 was 6.43. Moreover, the “in vivo antichagasic activity compared with Bnz” value in [5] (15 mg/kg/day i.p.) is listed as “failed to perform better than Bnz”. This compound also showed a pIC50 in series [6] of 4.01.
The compound `O=C(NCCCCn1cnc([N+](=O)[O-])n1)c1nc2ccccc2s1` [Compound 13, N-[4-(3-nitro-1H-1,2,4-triazol-1-yl)butyl]-1,3-benzothiazole-2-carboxamide] showed a Selectivity in [3] of 364.4. In addition, the values for the pIC50 in series [3] and in series [6] were 6.37 and 3.81, respectively. For the same compound, the “in vivo antichagasic activity compared with Bnz” value in [5] (15 mg/kg/day i.p.) was “failed to perform better than Bnz”.
For `CC(C)[N+](C)(CCOC(=O)C1c2ccccc2Oc2ccccc21)C(C)C` [Propantheline], in series [7] (mouse plasma, 60 min, 37°C), the “Mean remaining parent comp” value is on record as 30.4%.
For the compound `CNC(=C[N+](=O)[O-])NCCSCc1ccc(CN(C)C)o1` [Ranitidine], the apparent permeability from apical to basolateral (Papp A→B) at 2 h, 10 µM in series [9] is 0.5 ×10⁻⁶ cm/s.
Consider `CC(=O)CC(c1ccccc1)c1c(O)c2ccccc2oc1=O` (stereo not shown) [Warfarin], for which, in series [7] (mouse, plasma, 1 h), the “Mean remaining parent comp” value worked out at 97.8%. Moreover, the apical-to-basolateral permeability (Papp A→B) at 2 h, 10 µM in [10] is 44.2 ×10⁻⁶ cm/s. Further, the “Mean remaining parent comp (+)NADPH” value in [8] is 83.9%.
Turning to `CC(CCc1ccccc1)NCC(O)c1ccc(O)c(C(N)=O)c1` (stereo not shown) [labetalol], the logD6 in [11] is reported as −0.42.
As for `CC1CS(=O)(=O)CCN1/N=C/c1ccc([N+](=O)[O-])o1` (stereo not shown) [nifurtimox], the “effect on zebrafish embryos' development” value in series [12] is given as “weakened heart beat, pericardial oedema or death”.
